Literature values as cited in patent US20090317451A1, “PRESSURE-SENSITIVE ADHESIVE FOR SKIN SURFACE AND/OR TRANSDERMAL SUBSTANCE DELIVERY” (priority 2008, published 2009).
Counter-ions that a name gives are not always drawn. Like-named read-outs stand apart in the source and are kept apart here.

Experiments:
[1] = solvent(s) in which soluble, Merck 12th edition or other reference
[2] = in glycerol; Merck 12th edition #886

Structure (SMILES) | Reported Solubility [1] | decomposition by moisture [2] | Reported Solubility ([1]; listed as Liquimod)
CC(=O)Nc1ccc(O)cc1 [Acetaminophen] | Alcohol |  | 
Nc1nc2c(ncn2COCCO)c(=O)[nH]1 [Acyclovir] | Alcohol |  | 
CC(C)(C)NCC(O)c1ccc(O)c(CO)c1 (centres unmarked) [Albuterol] | Alcohol |  | 
CC(=O)Oc1ccccc1C(=O)O [Aspirin, acetylsalicylic acid] | Alcohol | glycerol hinders the decomposition | 
CCOC(=O)c1ccc(N)cc1 [Benzocaine] | Alcohol |  | 
CC12CCC(CC1=O)C2(C)C (centres unmarked) [Camphor] | Alcohol |  | 
Cc1cc(C2CCCCC2)n(O)c(=O)c1 [Ciclopirox] | Alcohol |  | 
COc1cc(/C=C/C(=O)CC(=O)/C=C/c2ccc(O)c(OC)c2)ccc1O [Curcumin] | Alcohol |  | 
COc1cccc2c1C(=O)c1c(O)c3c(c(O)c1C2=O)C[C@@](O)(C(=O)CO)C[C@@H]3O[C@H]1C[C@H](N)[C@H](O)[C@H](C)O1 [Doxorubicin] | Alcohol |  | 
CC[C@H]1OC(=O)[C@H](C)[C@@H](O[C@H]2C[C@@](C)(OC)[C@@H](O)[C@H](C)O2)[C@H](C)[C@@H](O[C@@H]2O[C@H](C)C[C@H](N(C)C)[C@H]2O)[C@](C)(O)C[C@@H](C)C(=O)[C@H](C)[C@@H](O)[C@]1(C)O [Erythromycin hydrate] | Alcohol |  | 
CC(=O)OCC(CCn1cnc2cnc(N)nc21)COC(C)=O [Famciclovir] | Alcohol |  | 
Oc1ccc(C2CNCCc3c2cc(O)c(O)c3Cl)cc1 (centres unmarked) [Fenoldopam] | Alcohol |  | 
O=C(CCCN1CCC(O)(c2ccc(Cl)cc2)CC1)c1ccc(F)cc1 [Haloperidol] | Alcohol |  | 
CC(C)Cc1ccc(C(C)C(=O)O)cc1 (centres unmarked) [Ibuprofen] | Alcohol |  | 
CC(C)Cn1cnc2c(N)nc3ccccc3c21 [Imiquimod] | Glycerol + |  | Alcohol
CC(=O)N1CCN(c2ccc(OCC3COC(Cn4ccnc4)(c4ccc(Cl)cc4Cl)O3)cc2)CC1 (centres unmarked) [Ketoconazole] | Alcohol |  | 
CS(C)(=O)=O [MSM, dimethyl sulfone, dimethyl sulfone] | Alcohol |  | 
Cc1ncc([N+](=O)[O-])n1CCO [Netronidazole] | Water, alcohol |  | 
C#C[C@]1(OC(C)=O)CC[C@H]2[C@@H]3CCC4=CC(=O)CC[C@@H]4[C@H]3CC[C@@]21C [Norethindrone acetate] | Alcohol |  | 
CC(=O)O[C@H]1C(=O)[C@@]2(C)[C@H]([C@H](OC(=O)c3ccccc3)[C@]3(O)C[C@H](OC(=O)[C@H](O)[C@@H](NC(=O)c4ccccc4)c4ccccc4)C(C)=C1C3(C)C)[C@]1(OC(C)=O)CO[C@@H]1C[C@@H]2O [Paclitaxel] | Alcohol |  | 
Nc1nc2c(ncn2CCC(CO)CO)c(=O)[nH]1 [Penciclovir] | Water |  | 
CC[C@@H]1C(=O)OC[C@@H]1Cc1cncn1C [Pilocarpine] | Alcohol |  | 
CC(CN1c2ccccc2Sc2ccccc21)N(C)C (centres unmarked) [Promethazine] | Alcohol |  | 
CN(C/C=C/C#CC(C)(C)C)Cc1cccc2ccccc12 [Terbinafinehydrochloride] | Alcohol |  | 
